Assay results reported in ChEMBL document CHEMBL5030556, “Selection and Identification of Novel Antibacterial Agents against Planktonic Growth and Biofilm Formation of Enterococcus faecalis” (J Med Chem, 2021).
≈ marks a conversion by molar mass, not a printed value. Values belong to the compound of their own block, whether it stands above or below them. Calls of active or inactive are those of the source. The rule behind the calls is not given here.

Experiments:
Enterococcus faecalis [1] = assay: Antibiofilm activity against Enterococcus faecalis assessed as reduction in amount of viable biofilm-embedded bacterial cells at 50 uM measured by YTO 9/PI staining followed by confocal laser scanning microscopy; type: functional
Enterococcus faecalis [2] = assay: Effect on initial adhesion capacity of Enterococcus faecalis assessed as attached cells at 25 uM for 6 hrs by crystal violet staining based microscopic assay (reference value: 0.412); type: functional
Enterococcus faecalis [3] = assay: Antibiofilm activity against Enterococcus faecalis FB-1 assessed as inhibition of biofilm maturation measured after 24 hr; type: functional, organism-based
Enterococcus faecalis [4] = assay: Antimicrobial activity against Enterococcus faecalis OG1RF assessed as reduction in visible bacterial growth incubated for 16 to 20 hrs by microdilution broth assay; type: functional; conditions: time 16-20 hrs
Staphylococcus aureus [5] = assay: Antibacterial activity against Staphylococcus aureus ATCC 29213 assessed as reduction in visible bacterial growth incubated for 16 to 20 hrs by microdilution broth assay; type: functional; conditions: time 16-20 hrs
[6] = Hemolytic activity against human erythrocytes at 200 uM incubated for 1 hr at 570 nm by spectrophotometry; type: ADME, tissue-based, Erythrocyte; conditions: read-out: Activity
Enterococcus faecalis [7] = assay: Antibiofilm activity against Enterococcus faecalis assessed as reduction in amount of viable biofilm-embedded bacterial cells at 50 uM in presence of ampicillin measured by YTO 9/PI staining followed by confocal laser scanning microscopy; type: functional
Enterococcus faecalis [8] = assay: Antibiofilm activity against Enterococcus faecalis FB-1 assessed as inhibition of biofilm maturation at 1.56 uM measured after 24 hr; type: functional, organism-based
[9] = system: Staphylococcus epidermidis; assay: Antibiofilm activity against Staphylococcus epidermidis assessed as inhibition of biofilm formation at sub-MIC concentration; type: functional, organism-based
Staphylococcus aureus [10] = assay: Antibacterial activity against Staphylococcus aureus ATCC 35556 assessed as reduction in visible bacterial growth incubated for 16 to 20 hrs by microdilution broth assay; type: functional; conditions: time 16-20 hrs
Enterococcus faecalis [11] = assay: Bacteriostatic activity against planktonic cells of Enterococcus faecalis OG1RF measured by microdilution broth assay; type: functional, organism-based
Enterococcus faecalis [12] = assay: Antibiofilm activity against Enterococcus faecalis FB-1 assessed as eradication of mature biofilm measured after 48 hrs by semiquantitative microtiter assay; type: functional
Enterococcus faecalis [13] = assay: Antibacterial activity against Enterococcus faecalis FB-1 assessed as reduction in visible bacterial growth incubated for 16 to 20 hrs by microdilution broth assay; type: functional; conditions: time 16-20 hrs
Enterococcus faecalis [14] = assay: Antibiofilm activity against Enterococcus faecalis assessed as inhibition of biofilm at 1/2 times of MIC incubated for 24 hrs; type: functional; design: scale not given: the % may be the effect or the level left
Streptococcus agalactiae [15] = assay: Antibacterial activity against Streptococcus agalactiae NSGC64 assessed as reduction in visible bacterial growth incubated for 16 to 20 hrs by microdilution broth assay; type: functional; conditions: time 16-20 hrs
[16] = Inhibition of Enterococcus faecalis OG1RF YycG autophosphorylation by Kinase-Glo luminescent kinase assay
Enterococcus faecalis [17] = assay: Antibiofilm activity against Enterococcus faecalis FB-1 assessed as eradication of mature biofilm measured after 72 hrs by semiquantitative microtiter assay; type: functional
[18] = system: Staphylococcus epidermidis; assay: Antibacterial activity against Staphylococcus epidermidis ATCC 35984 assessed as reduction in visible bacterial growth incubated for 16 to 20 hrs by microdilution broth assay; type: functional; conditions: time 16-20 hrs
[19] = Cytotoxicity against african green monkey Vero cells assessed as inhibition of cell growth by MTT assay; type: cell-based; conditions: chlorocebus sabaeus
Streptococcus agalactiae [20] = assay: Antibiofilm activity against Streptococcus agalactiae assessed as inhibition of biofilm formation at sub-MIC concentration; type: functional, organism-based
Staphylococcus aureus [21] = assay: Antibiofilm activity against Staphylococcus aureus assessed as inhibition of biofilm formation at sub-MIC concentration; type: functional, organism-based
Enterococcus faecium [22] = assay: Antibacterial activity against Enterococcus faecium EF16M64 assessed as reduction in visible bacterial growth incubated for 16 to 20 hrs by microdilution broth assay; type: functional; conditions: time 16-20 hrs
Enterococcus faecalis [23] = assay: Antibiofilm activity against Enterococcus faecalis assessed as reduction in amount of viable biofilm-embedded bacterial cells at 50 uM in presence of daptomycin measured by YTO 9/PI staining followed by confocal laser scanning microscopy; type: functional
Enterococcus faecalis [24] = assay: Antibacterial activity against Enterococcus faecalis OG1RF assessed as reduction in visible bacterial growth incubated for 16 to 20 hrs by microdilution broth assay; type: functional; conditions: time 16-20 hrs
Enterococcus faecalis [25] = assay: Bactericidal activity against Enterococcus faecalis OG1RF assessed as reduction in bacterial colonies incubated for 16 to 20 hrs by microdilution broth analysis; type: functional; conditions: time 16-20 hrs, read-out: MBC99.9
Enterococcus faecalis [26] = assay: Inhibition of biofilm formation of Enterococcus faecalis FB-1 assessed as inhibitory rate of formation at 100 uM for 24 hrs measured at 570 nm by crystal violet staining based spectrophotometry; type: functional
Escherichia coli = assay: Antibacterial activity against Escherichia coli […] assessed as reduction in visible bacterial growth incubated for 16 to 20 hrs by microdilution broth assay; type: functional; conditions: time 16-20 hrs
Enterococcus faecalis [27] = assay: Antibacterial activity against Enterococcus faecalis ATCC 29212 assessed as reduction in visible bacterial growth incubated for 16 to 20 hrs by microdilution broth assay; type: functional; conditions: time 16-20 hrs
Enterococcus faecalis [28] = assay: Antibiofilm activity against Enterococcus faecalis FB-1 assessed as inhibition of biofilm infection at 25 uM by fluid shear system; type: functional, organism-based
[29] = Hemolytic activity against human erythrocytes at 50 uM incubated for 1 hr at 570 nm by spectrophotometry; type: ADME, tissue-based, Erythrocyte; conditions: read-out: Activity
Enterococcus faecium [30] = assay: Antibiofilm activity against Enterococcus faecium assessed as inhibition of biofilm formation at sub-MIC concentration; type: functional, organism-based
[31] = system: Staphylococcus epidermidis; assay: Antibacterial activity against Staphylococcus epidermidis ATCC 12228 assessed as reduction in visible bacterial growth incubated for 16 to 20 hrs by microdilution broth assay; type: functional; conditions: time 16-20 hrs
Enterococcus faecalis [32] = assay: Binding affinity to Enterococcus faecalis FB-1 YycG assessed as slow association and slow dissociation measured by Octet RED96 response assay
Enterococcus faecalis [33] = assay: Bactericidal activity against Enterococcus faecalis OG1RF assessed as reductions in colony forming unit in presence of linezolid within 3 hrs by time-killing assay; type: functional, organism-based
Enterococcus faecalis [34] = assay: Antibiofilm activity against Enterococcus faecalis assessed as fold reduction in yycF gene expression at 25 uM incubated for 6 hrs by qRT-PCR analysis; type: functional
Enterococcus faecalis [35] = assay: Bactericidal activity against Enterococcus faecalis OG1RF assessed as reductions in colony forming unit in presence of vancomycin within 3 hrs by time-killing assay; type: functional, organism-based
Enterococcus faecalis [36] = assay: Bactericidal activity against Enterococcus faecalis OG1RF assessed as reductions in colony forming unit in presence of ampicillin after 24 hrs by time-killing assay; type: functional, organism-based
Enterococcus faecalis [37] = assay: Antibacterial activity against clinical strain vancomycin-resistant Enterococcus faecalis assessed as inhibition of bacterial growth; type: functional
Enterococcus faecalis [38] = assay: Bactericidal activity against Enterococcus faecalis OG1RF assessed as reductions in colony forming unit in presence of vancomycin after 24 hrs by time-killing assay; type: functional, organism-based
Enterococcus faecalis [39] = assay: Binding affinity to Enterococcus faecalis FB-1 YycG assessed as slow association and rapid dissociation measured by Octet RED96 response assay
Enterococcus faecalis [40] = assay: Antibacterial activity against clinical strain Enterococcus faecalis assessed as inhibition of bacterial growth; type: functional
Enterococcus faecalis [41] = assay: Antibiofilm activity against Enterococcus faecalis FB-1 assessed as eradication of mature biofilm by semiquantitative microtiter assay; type: functional, organism-based
Enterococcus faecalis [42] = assay: Antibiofilm activity against Enterococcus faecalis assessed as fold reduction in sprE gene expression at 25 uM incubated for 6 hrs by qRT-PCR analysis; type: functional
Enterococcus faecalis [43] = assay: Antibacterial activity against clinical strain linozelid-resistant Enterococcus faecalis assessed as inhibition of bacterial growth; type: functional
Enterococcus faecalis [44] = assay: Antibiofilm activity against Enterococcus faecalis assessed as fold reduction in fsrB gene expression at 25 uM incubated for 6 hrs by qRT-PCR analysis; type: functional
Enterococcus faecalis [45] = assay: Bactericidal activity against Enterococcus faecalis OG1RF assessed as reductions in colony forming unit in presence of ampicillin within 3 hrs by time-killing assay; type: functional, organism-based
Enterococcus faecalis [46] = assay: Antibiofilm activity against Enterococcus faecalis assessed as fold reduction in gelE gene expression at 25 uM incubated for 6 hrs by qRT-PCR analysis; type: functional
Enterococcus faecalis [47] = assay: Antibiofilm activity against Enterococcus faecalis assessed as fold reduction in epbOX gene expression at 25 uM incubated for 6 hrs by qRT-PCR analysis; type: functional
Enterococcus faecalis [48] = assay: Antibacterial activity against ATc induced Enterococcus faecalis OG1RF-asryycG silencing strain assessed as fold reduction in MIC relative to wild type; type: functional
Enterococcus faecalis [49] = assay: Bactericidal activity against Enterococcus faecalis OG1RF assessed as reductions in colony forming unit in presence of linezolid after 24 hrs by time-killing assay; type: functional, organism-based
Enterococcus faecalis [50] = assay: Antibiofilm activity against Enterococcus faecalis assessed as fold reduction in yycG gene expression at 25 uM incubated for 6 hrs by qRT-PCR analysis; type: functional
Enterococcus faecalis [51] = assay: Antibiofilm activity against Enterococcus faecalis assessed as fold reduction in […] gene expression at 25 uM incubated for 6 hrs by qRT-PCR analysis; type: functional

Structure (SMILES): CC1(C)S[C@@H]2[C@H](NC(=O)[C@H](N)c3ccccc3)C(=O)N2[C@H]1C(=O)O [AMPICILLIN]
- Activity (Enterococcus faecalis [1]): 24.46%

- MIC (Enterococcus faecalis [4]): > 200 µM
- MIC (Staphylococcus aureus [5]): > 200 µM
- MIC (Staphylococcus aureus [10]): > 200 µM
- MIC (Enterococcus faecalis [13]): > 200 µM
- MIC (Streptococcus agalactiae [15]): > 200 µM
- IC50 [16]: 6.1 µM
- MIC [18]: > 200 µM
- MIC (Enterococcus faecium [22]): > 200 µM
- MIC (Enterococcus faecalis [24]): > 200 µM
- MIC (Escherichia coli): > 200 µM
- MIC (Enterococcus faecalis [27]): > 200 µM
- MIC [31]: > 200 µM
- Activity (Enterococcus faecalis [32]): Active
Structure (SMILES): COc1cc(C2C(C(=O)c3cc4ccccc4o3)=C(O)C(=O)N2c2nnc(SCc3ccccc3Cl)s2)ccc1O (stereo not given)
- OD (Enterococcus faecalis [2]): 0.143
- Activity (Enterococcus faecalis [3]): Dose-Dependent Effect
- hemolysis at 1 h, 200 µM [6]: 6.14%
- Activity (Enterococcus faecalis [7]): 72.71%
- Activity (Enterococcus faecalis [8]): Active
- Activity [9]: Active
- Activity (Enterococcus faecalis [11]): inactive
- Activity (Enterococcus faecalis [12]): 51%
- Activity (Enterococcus faecalis [1]): 52.85%
- Activity (Enterococcus faecalis [14]): 74.8%
- Activity (Enterococcus faecalis [17]): 66%
- CC50 [19]: > 200 µM
- Activity (Streptococcus agalactiae [20]): Active
- Activity (Staphylococcus aureus [21]): Active
- Activity (Enterococcus faecalis [23]): 47.16%
- MBC (Enterococcus faecalis [25]): > 200 µM
- inhibition at 100 µM (Enterococcus faecalis [26]): 92.7%
- Activity (Enterococcus faecalis [28]): Active
- hemolysis at 1 h, 50 µM [29]: 2.77%
- Activity (Enterococcus faecium [30]): Active

Structure (SMILES): CCOC(=O)c1c(CN2CCN(C)CC2)n(-c2ccccc2)c2ccc(OS(=O)(=O)c3ccc(C)cc3)cc12
- OD (Enterococcus faecalis [2]): 0.186
- Activity (Enterococcus faecalis [3]): Dose-Dependent Effect
- MIC (Enterococcus faecalis [4]): 25 µM (≈ 13.7 µg/mL)
- MIC (Staphylococcus aureus [5]): 12.5 µM (≈ 6.85 µg/mL)
- hemolysis at 1 h, 200 µM [6]: 28.2%
- Activity (Enterococcus faecalis [33]): Active
- fold change (FC) (Enterococcus faecalis [34]): 3
- Activity (Enterococcus faecalis [35]): Active
- Activity (Enterococcus faecalis [36]): Active
- MIC50 (Enterococcus faecalis [37]): 50 µM (≈ 27.4 µg/mL)
- MIC (Staphylococcus aureus [10]): 12.5 µM (≈ 6.85 µg/mL)
- Activity (Enterococcus faecalis [38]): Active
- MIC (Enterococcus faecalis [13]): 50 µM (≈ 27.4 µg/mL)
- Activity (Enterococcus faecalis [1]): 18.29%
- Activity (Enterococcus faecalis [39]): Active
- Activity (Enterococcus faecalis [14]): 74.8%
- MIC (Streptococcus agalactiae [15]): 12.5 µM (≈ 6.85 µg/mL)
- IC50 [16]: 42.9 µM
- MIC (Enterococcus faecalis [40]): 25 µM (≈ 13.7 µg/mL)
- MIC [18]: 12.5 µM (≈ 6.85 µg/mL)
- CC50 [19]: > 200 µM
- MIC (Enterococcus faecium [22]): 25 µM (≈ 13.7 µg/mL)
- Activity (Enterococcus faecalis [41]): inactive
- MIC (Enterococcus faecalis [24]): 25 µM (≈ 13.7 µg/mL)
- MBC (Enterococcus faecalis [25]): 100 µM (≈ 54.8 µg/mL)
- inhibition at 100 µM (Enterococcus faecalis [26]): 96.2%
- fold change (FC) (Enterococcus faecalis [42]): 2
- MIC90 (Enterococcus faecalis [43]): 100 µM (≈ 54.8 µg/mL)
- fold change (FC) (Enterococcus faecalis [44]): 2
- MIC (Escherichia coli): > 200 µM
- MIC (Enterococcus faecalis [27]): 25 µM (≈ 13.7 µg/mL)
- Activity (Enterococcus faecalis [45]): Active
- fold change (FC) (Enterococcus faecalis [46]): 2
- Activity (Enterococcus faecalis [28]): Active
- hemolysis at 1 h, 50 µM [29]: 24.1%
- fold change (FC) (Enterococcus faecalis [47]): 2
- MIC [31]: 12.5 µM (≈ 6.85 µg/mL)
- fold change (FC) (Enterococcus faecalis [48]): 4
- Activity (Enterococcus faecalis [49]): Active
- fold change (FC) (Enterococcus faecalis [50]): 20
- fold change (FC) (Enterococcus faecalis [51]): 2
